From publication PMC8876975, “EGFR and COX-2 Dual Inhibitor: The Design, Synthesis, and Biological Evaluation of Novel Chalcones” (Molecules, 2022)
Like-named read-outs stand apart in the source and are kept apart here.

Legend:
[1] = target: T1, human recombinant sPLA2-V (Homo sapiens, UniProt P39877); test: Secretory PLA2-V activity assay (Ellman's photometric method)
T1 sequence (P39877 21-138): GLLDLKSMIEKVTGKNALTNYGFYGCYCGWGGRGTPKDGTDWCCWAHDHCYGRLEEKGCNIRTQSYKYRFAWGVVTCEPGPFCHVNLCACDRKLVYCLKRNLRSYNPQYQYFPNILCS

lung cancer (H-460) = test: MTT cytotoxicity assay, H-460; type: cell-based; details: Homo sapiens, NCI-H460; H-460, MTT, 72 h; read-out: Antiproliferative Activity IC50 ± SEM, H-460
[2] = Cell viability % (MTT, normal cell line); details: human, MRC5 normal fetal lung fibroblast cells; also: test concentration or dose not given here
Sheep-derived COX-1 = target: T2, Sheep-derived COX-1 (Ovis aries, UniProt P05979); test: Cyclooxygenase assay (PGE2 quantification), COX-1
T2 sequence (P05979 25-600): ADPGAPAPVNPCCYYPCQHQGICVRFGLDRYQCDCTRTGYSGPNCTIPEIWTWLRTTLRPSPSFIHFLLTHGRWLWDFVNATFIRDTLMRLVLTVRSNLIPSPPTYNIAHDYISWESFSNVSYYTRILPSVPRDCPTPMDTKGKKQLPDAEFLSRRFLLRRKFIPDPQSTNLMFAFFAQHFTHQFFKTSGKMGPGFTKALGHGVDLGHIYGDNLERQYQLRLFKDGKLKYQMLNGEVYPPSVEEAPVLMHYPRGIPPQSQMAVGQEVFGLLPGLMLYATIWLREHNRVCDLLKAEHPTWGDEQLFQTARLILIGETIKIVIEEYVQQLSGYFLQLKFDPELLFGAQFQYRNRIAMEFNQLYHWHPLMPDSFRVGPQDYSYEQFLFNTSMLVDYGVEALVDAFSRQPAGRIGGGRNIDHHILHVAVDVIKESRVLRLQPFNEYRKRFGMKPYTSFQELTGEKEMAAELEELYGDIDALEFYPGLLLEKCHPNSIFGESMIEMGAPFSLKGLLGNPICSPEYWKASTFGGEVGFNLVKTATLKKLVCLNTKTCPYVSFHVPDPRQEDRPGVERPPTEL

[3] = tested on: human colon cancer (HT-29); test: MTT cytotoxicity assay, HT-29; type: cell-based; details: Homo sapiens; HT-29, MTT, 72 h; read-out: Antiproliferative Activity IC50 ± SEM, HT-29
[4] = tested on: human malignant melanoma (A375); test: MTT cytotoxicity assay, A375; type: cell-based; details: Homo sapiens, A-375, 72 h, read-out: Antiproliferative Activity IC50 ± SEM, A375
human recombinant COX-2 = target: T3, human recombinant COX-2 (Homo sapiens, UniProt P35354); test: Cyclooxygenase assay (PGE2 quantification), COX-2; type: biochemical; details: mean ± SD; n = 3
T3 construct: purchased Cayman Chemicals
T3 sequence (P35354 18-604): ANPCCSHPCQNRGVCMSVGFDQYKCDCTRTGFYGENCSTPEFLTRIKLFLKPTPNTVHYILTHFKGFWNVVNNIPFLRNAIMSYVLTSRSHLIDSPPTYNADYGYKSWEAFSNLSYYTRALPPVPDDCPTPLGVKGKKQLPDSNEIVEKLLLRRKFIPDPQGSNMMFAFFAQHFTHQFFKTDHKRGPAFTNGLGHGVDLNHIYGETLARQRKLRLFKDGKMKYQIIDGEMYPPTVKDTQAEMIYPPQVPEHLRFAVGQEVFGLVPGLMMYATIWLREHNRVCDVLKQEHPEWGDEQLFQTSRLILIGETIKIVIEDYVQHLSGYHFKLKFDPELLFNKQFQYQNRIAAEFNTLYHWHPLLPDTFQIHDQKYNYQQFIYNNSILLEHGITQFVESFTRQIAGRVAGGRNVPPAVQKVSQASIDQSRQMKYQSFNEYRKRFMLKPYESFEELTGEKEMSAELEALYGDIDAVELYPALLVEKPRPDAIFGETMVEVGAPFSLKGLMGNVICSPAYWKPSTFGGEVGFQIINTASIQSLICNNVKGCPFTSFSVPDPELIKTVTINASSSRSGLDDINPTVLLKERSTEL

[5] = tested on: pancreatic ductal cancer (Panc-1); test: MTT cytotoxicity assay, Panc-1; type: cell-based; details: Homo sapiens; Panc-1, MTT, 72 h; read-out: Antiproliferative Activity IC50 ± SEM, Panc-1
[6] = tested on: pancreatic cancer (PaCa-2); test: MTT cytotoxicity assay, PaCa-2; type: cell-based; details: PaCa-2, MTT, 72 h; read-out: Antiproliferative Activity IC50 ± SEM, PaCa-2

| Compound | IC50 [1] [µM] | IC50 (lung cancer (H-460)) [µM] | viability at 72 h [2] [%] | IC50 (Sheep-derived COX-1) [µM] | IC50 [3] [µM] | IC50 [4] [µM] | IC50 (human recombinant COX-2) [µM] | IC50 [5] [µM] | IC50 [6] [µM] | IC50 ([1]; read-out: sPLA2-V IC50, mean ± SD, n = 3) [µM] |
| --- | --- | --- | --- | --- | --- | --- | --- | --- | --- | --- |
| CC(=O)c1cccc(/N=N/c2ccc(O)cc2O)c1 [Compound A2, (E)-1-(3-((2,4-Dihydroxyphenyl)daizenyl)phenyl)ethan-1-one] | 7.25 ± 1.24 | 5.9 ± 2.4 | 90.4 ± 1.9 | 22.2 ± 2.45 | 9.2 ± 2.5 | 8.4 ± 2.1 | 27.9 ± 1.65 | 9.6 ± 2 | 9.6 ± 1.5 | – |
| CN(C)c1ccc(/C=C/C(=O)c2cccc(/N=N/c3ccc(O)cc3O)c2)cc1 [Compound C14, (E)-1-(3-((E)-(2,4-Dihydroxyphenyl)diazenyl)phenyl)-3-(4-(dimethylamino)phenyl) prop-2-en-1-one] | 7.04 ± 1.29 | 5.2 ± 1.3 | 89.4 ± 2.1 | 11.5 ± 1.2 | 6.5 ± 1.4 | 4.9 ± 1.6 | 5.14 ± 1.1 | 4.6 ± 1.7 | 5.9 ± 1.9 | – |
| CC(=O)c1cccc(/N=N/c2ccc(O)cc2)c1 [Compound A1] | – | 7.4 ± 2.2 | 80.3 ± 1.6 | – | 8.3 ± 2.1 | 9.3 ± 1.9 | – | 9.1 ± 1.8 | 8.6 ± 1.2 | – |
| CN(C)c1ccc(/C=C/C(=O)c2cccc(/N=N\c3c(O)ccc4ccccc34)c2)cc1 [Compound C17, (E)-3-(4-(dimethylamino)phenyl)-1-(3-((Z)-(2-hydroxynaphthalen-1-yl)diazenyl)phenyl) prop-2-en-1-one] | 9.45 ± 1.67 | 5.6 ± 2.1 | 87.2 ± 1.4 | 49.1 ± 2.69 | 9.2 ± 1.6 | 8.8 ± 2.5 | 5.29 ± 1.1 | 2.5 ± 1.2 | 7.5 ± 1.9 | – |
| CC(=O)c1cccc(/N=N/c2ccc(O)c3ncccc23)c1 [Compound A6, (E)-1-(3-((8-Hydroxyquinolin-5-yl)diazenyl)phenyl)ethan-1-one] | 7.42 ± 1.41 | 8.8 ± 2.3 | 82.5 ± 1.7 | 4.85 ± 1.2 | 7.6 ± 1.4 | 9.5 ± 1.5 | 5.21 ± 1.2 | 6.9 ± 2.1 | 9.5 ± 1.9 | – |
| CC(=O)c1cccc(/N=N/c2c(O)ccc3ccccc23)c1 [Compound A5, (E)-1-(3-((2-Hydroxynaphthalen-1-yl)diazenyl)phenyl)ethan-1-one] | 4.24 ± 1.16 | 9.2 ± 1.2 | 88.2 ± 1.2 | 9.23 ± 1.64 | 11.9 ± 2.5 | 9.6 ± 2.4 | 14.2 ± 1.79 | 9.6 ± 1.8 | 10.5 ± 1.9 | – |
| CN(C)c1ccc(/C=C/C(=O)c2cccc(/N=N/c3ccc(O)cc3)c2)cc1 [Compound C13, (E)-3-(4-(Dimethylamino)phenyl)-1-(3-((E)-(4-hydroxyphenyl)diazenyl)phenyl)prop-2-en-1-one] | 5.06 ± 1.2 | 6.6 ± 1.2 | 90.6 ± 1.7 | 18.3 ± 1.27 | 7.8 ± 1.8 | 8.4 ± 1.5 | 19.2 ± 1.52 | 8.7 ± 1.4 | 7.4 ± 1.7 | – |
| C#Cc1cccc(Nc2ncnc3cc(OCCOC)c(OCCOC)cc23)c1 [Erlotinib, reference compound] | – | 0.04 ± 0.02 | – | – | 0.07 ± 0.04 | 4.14 ± 1.2 | – | 0.05 ± 0.02 | 0.06 ± 0.04 | – |
| C[C@@H]1C[C@H]2[C@@H]3CCC4=CC(=O)C=C[C@]4(C)[C@@]3(F)[C@@H](O)C[C@]2(C)[C@@]1(O)C(=O)CO [Dexamethasone, reference compound] | – | – | – | – | – | – | – | – | – | 0.57 ± 0.06 |
